Where no end group is shown, it is not given here. The star is where a group is joined. Hexanoyl = CCCCCC(=O)*
Assays:
B16-F1 melanocytes = test: B16 Pigmentation Assay (melanin secretion); format: cell-based, mouse; conditions: B16-F1 cells, 6 days
Protocol: Melanogenesis is the process by which melanocytes produce melanin, a naturally produced pigment that imparts color to skin, hair, and eyes. Inhibiting melanogenesis is beneficial to prevent skin darkening and lighten dark spots associated with aging. Melanogenesis in B16 cells was determined in the presence or absence of niacinamide by measuring melanin secretion. It was determined that niacinamide inhibits melanogenesis by 30%.
Melanogenesis was determined using B16-F1 melanocytes (ATCC), an immortalized mouse melanoma cell line. The endpoint of this assay was a spectrophotometric measurement of melanin production and cellular viability. B16-F1 melanocytes, were cultivated in standard DMEM growth medium with 10% fetal bovine serum (Mediatech) at 37° C. in 10% CO2 and then treated with or without niacinamide for 6 days. Following incubation, melanin secretion was measured by absorbance at 405 nm and cellular viability was quantified.

[1] = test system: TNF-α production in keratinocytes; test: Inhibition of Tumor Necrosis Factor Alpha (ELISA, PMA-treated keratinocytes); format: cell-based, human; conditions: PMA 10 ng/ml, 6 hours
Protocol: TNF-α is the prototype ligand of the TNF superfamily. It is a pleiotropic cytokine that plays a central role in inflammation. Increase in its expression is associated with an up regulation in pro-inflammatory activity. The bioassay used to analyze the effect of oligopeptide-1 and Opuntia ficus-indica extract used a spectrophotometric measurement that reflects the presence of TNF-α and cellular viability. It was determined that oligopeptide-1 and Opuntia ficus-indica extract inhibits TNF-α production in keratinocytes by 40% and 50%.
Subconfluent normal human adult keratinocytes (Cascade Biologics) cultivated in EpiLife standard growth medium (Cascade Biologics) at 37° C. in 5% CO2, were treated with phorbol 12-myristate 13-acetate (PMA, 10 ng/ml, Sigma Chemical, #P1585-1MG) and either oligopeptide-1 or Opuntia ficus-indica extract (treated samples) or no additional treatment (untreated sample) for 6 hours. PMA causes a dramatic increase in TNF-α secretion which peaks at 6 hours after treatment. Following incubation, cell culture medium was collected and the amount of TNF-a secretion quantified using a sandwich enzyme linked immuno-sorbant assay (ELISA) from R&D Systems (#DTA00C).
Briefly, the ELISA assay employed the quantitative sandwich enzyme immunoassay technique whereby a monoclonal antibody specific for TNF-α was been pre-coated onto a microplate. […]

[2] = test system: procollagen peptide production in human epidermal fibroblasts; test: Collagen Stimulation Assay (procollagen peptide ELISA); format: cell-based; conditions: 3 days
Protocol: Collagen is an extracellular matrix protein critical for skin structure. Increased synthesis of collagen helps improve skin firmness and elasticity. Collagen stimulation was determined using a sandwich enzyme linked immuno-sorbant assay (ELISA) from Takara (#MK101) by measuring production of procollagen peptide (a precursor to collagen) in human epidermal fibroblasts incubated in the presence or absence of oligopeptide-1 or Prunus mume extract. It was determined that oligopeptide-1 increased collagen stimulation by 20% and Prunus mume extract increased collagen stimulation by 71%.
Collagen stimulation can be monitored by a spectrophotometric measurement that reflects the presence of procollagen peptide and cellular viability. The assay employs the quantitative sandwich enzyme immunoassay technique whereby a monoclonal antibody specific for procollagen peptide has been pre-coated onto microplate wells. […] Following incubation, cell culture medium was collected (samples and controls) and the amount of procollagen peptide secretion was quantified using a sandwich enzyme linked immuno-sorbant assay (ELISA) from Takara (#MK101). […] The color development was stopped and the color development was measured at 450 nm by a microplate reader.

mushroom tyrosinase = test: Mushroom Tyrosinase Activity Assay; format: biochemical; conditions: substrate L-Dopa
Protocol: In mammalian cells, tyrosinase catalyzes two steps in the multi-step biosynthesis of melanin pigments from tyrosine (and from the polymerization of dopachrome). Tyrosinase is localized in melanocytes and produces melanin (aromatic quinone compounds) that imparts color to skin, hair, and eyes. The activity of tyrosinase on its substrate L-Dopa in the presence or absence of oligopeptide-1 was determined using a colorimetric mushroom tyrosinase activity assay. It was determined that oligopeptide-1 inhibits tyrosinase by 40%. Tyrosinase activity was assayed by measuring the ability of purified mushroom tyrosinase (Sigma) to oxidize its substrate, L-Dopa (Fisher), in the presence or absence of oligopeptide-1. Oxidation of L-DOPA by the tyrosinase produced a pigment that was evaluated by colorimetric plate reading at 490 nm. The percent inhibition of mushroom tyrosinase activity was calculated and compared to non-treated controls to determine the ability of test ingredients to inhibit the activity of purified enzyme. Test inhibition was compared with that of the known tyrosinase inhibitor kojic acid (Sigma).

[3] = test system: elastin production in cultured human fibroblasts; test: Elastin Stimulation Assay; format: cell-based
Protocol: Elastin is a connective tissue protein that helps skin resume shape after stretching or contracting. Elastin is also an important load-bearing protein used in places where mechanical energy is required to be stored. Elastin is made by linking many soluble tropoelastin protein molecules, in a reaction catalyzed by lysyl oxidase. Elastin production was determined in cultured human fibroblasts incubated in the presence or absence of oligopeptide-1. It was determined that oligopeptide-1 increased elastin production by 23%.
Elastin secretion and elastin fibers were monitored by staining of cultured human fibroblasts using antibodies directed against elastin. Human fibroblasts were treated with or without oligopeptide-1. Following incubation, elastin content was measured using immunofluorescent antibodies directed against elastin.

| inhibits tyrosinase by (mushroom tyrosinase) | Inhibition of Tyrosinase: Activity (mushroom tyrosinase; negative = inhibition) | Compound | inhibits melanogenesis by (B16-F1 melanocytes) | Inhibition of Melanogenesis: Activity (B16-F1 melanocytes; negative = inhibition) | inhibits TNF-α production in keratinocytes by [1] | Inhibition of TNF-α: Activity ([1]; negative = inhibition) | increased collagen stimulation by [2] | Collagen Stimulation: Activity ([2]; positive = increase) | increased elastin production by [3] | Elastin Production: Activity ([3]; positive = increase) |
| --- | --- | --- | --- | --- | --- | --- | --- | --- | --- | --- |
| – | – | NC(=O)c1cccnc1 [Niacinamide, 3-Pyridinecarboxamide] | 30% | −30% | – | – | – | – | – | – |
| 40% | −40% | caprooyl-Gly-His-Lys-Lys (Hexanoyl-GHKK) [Oligopeptide-1, modified tetrapeptide; Lucas Meyer, trade name ChroNOline] | – | – | 40% | −40% | 20% | +20% | 23% | +23% |

From patent US10722436B2, “Topical compositions” (MARY KAY INC., priority 2015, dated 2020)
